We go through 14 compounds from US11331314B2, “Amine substituted triazole derivatives and uses thereof” (Bayer Pharma Aktiengesellschaft, priority 2017, dated 2022).

Usually IC50 stands for the concentration that gives 50% inhibition.

Test [1] deals with human V1a receptor (Homo sapiens, UniProt P37288). The test is described as follows: Cellular in vitro assay for determining vasopressin receptor activity, V1a receptor cell line (photoprotein luminescence). The following applies: for IC50: CHO cell line transfected with the human V1a receptor, agonist [Arg8]-vasopressin at EC50 concentration, read-out: IC50 hV1a; for ratio IC50 hV2/hV1a: selectivity ratio of the cellular IC50 values. The format is cell-based. The essentials: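 CHO K1 cells stably expressing human V1a receptor with aequorin photoprotein, loaded overnight with coelenterazine. Compounds preincubated 10 min at various concentrations, then challenged with [Arg^8]-vasopressin at EC50 concentration. Calcium-driven luminescence read immediately; IC50 values derived.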

The target of test [2] is T1, human V2 receptor (Homo sapiens, UniProt P30518).
T1 construct: expressed in transfected cells; host or cells: CHO K1 (ATCC) expressing firefly luciferase under a CRE-responsive promoter
The test is described as follows: Cellular in vitro assay for determining vasopressin receptor activity, V2 receptor cell line (CRE-luciferase). The note with it: CHO cell line transfected with the human V2 receptor; agonist [Arg8]-vasopressin at EC50 concentration; read-out: IC50 hV2. It is filed as cell-based.

Sequence of human V1a receptor (P37288 whole entry): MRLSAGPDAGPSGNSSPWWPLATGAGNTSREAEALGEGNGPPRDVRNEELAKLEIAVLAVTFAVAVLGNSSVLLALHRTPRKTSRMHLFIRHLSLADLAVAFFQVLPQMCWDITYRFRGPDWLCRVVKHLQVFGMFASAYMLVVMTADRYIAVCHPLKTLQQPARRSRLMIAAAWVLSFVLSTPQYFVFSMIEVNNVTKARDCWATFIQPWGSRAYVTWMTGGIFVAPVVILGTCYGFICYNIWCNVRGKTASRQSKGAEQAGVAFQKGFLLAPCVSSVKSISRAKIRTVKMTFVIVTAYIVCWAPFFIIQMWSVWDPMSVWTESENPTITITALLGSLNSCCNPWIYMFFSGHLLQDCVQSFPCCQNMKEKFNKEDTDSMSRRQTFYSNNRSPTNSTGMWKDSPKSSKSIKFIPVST
T1 sequence (P30518 whole entry): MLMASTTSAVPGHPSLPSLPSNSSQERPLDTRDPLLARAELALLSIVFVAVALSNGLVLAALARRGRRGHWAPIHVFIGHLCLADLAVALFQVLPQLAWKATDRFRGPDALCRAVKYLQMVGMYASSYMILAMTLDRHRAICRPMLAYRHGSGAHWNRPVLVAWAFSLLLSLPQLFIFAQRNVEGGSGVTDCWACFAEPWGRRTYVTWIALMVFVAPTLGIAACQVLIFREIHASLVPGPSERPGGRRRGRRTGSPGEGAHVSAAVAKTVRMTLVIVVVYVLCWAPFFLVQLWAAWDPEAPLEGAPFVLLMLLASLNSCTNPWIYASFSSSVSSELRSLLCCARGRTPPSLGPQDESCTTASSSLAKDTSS

With `CC(=O)N1CCN(c2nc(Cn3nc(-c4ccc(Cl)cc4)n(C[C@H](O)C(F)(F)F)c3=O)nn2-c2ccccc2Cl)CC1` [Example 75, 2-{[5-(4-Acetylpiperazin-1-yl)-1-(2-chlorophenyl)-1H-1,2,4-triazol-3-yl]methyl}-5-(4-chlorophenyl)-4-[(2S)-3,3,3-trifluoro-2-hydroxypropyl]-2,4-dihydro-3H-1,2,4-triazol-3-one], in test [1], the IC50 was found to be 0.81 nM and the “ratio IC50 hV2/hV1a” value came out at 11.0. For the same compound, in test [2], the IC50 amounted to 8.9 nM.

Turning to `CC1(C)CN(c2nc(Cn3nc(-c4ccc(Cl)cc4)n(C[C@H](O)C(F)(F)F)c3=O)nn2-c2ccccc2Cl)CCN1` [Example 76, 5-(4-Chlorophenyl)-2-{[1-(2-chlorophenyl)-5-(3,3-dimethylpiperazin-1-yl)-1H-1,2,4-triazol-3-yl]methyl}-4-[(2S)-3,3,3-trifluoro-2-hydroxypropyl]-2,4-dihydro-3H-1,2,4-triazol-3-one], in test [1], the IC50 amounted to 0.42 nM and the “ratio IC50 hV2/hV1a” value stood at 108.4. The IC50 in test [2] is 45 nM.

Regarding `CC1(CNc2nc(Cn3nc(-c4ccc(Cl)cc4)n(C[C@H](O)C(F)(F)F)c3=O)nn2-c2ccccc2Cl)COC1` [Example 78, 5-(4-Chlorophenyl)-2-{[1-(2-chlorophenyl)-5-{[(3-methyloxetan-3-yl)methyl]amino}-1H-1,2,4-triazol-3-yl]methyl}-4-[(2S)-3,3,3-trifluoro-2-hydroxypropyl]-2,4-dihydro-3H-1,2,4-triazol-3-one], in test [1], the half-inhibitory concentration (IC50) was found to be 0.79 nM and the “ratio IC50 hV2/hV1a” value turned out to be 2.1. The concentration for half-maximal inhibition (IC50) in test [2] turned out to be 1.63 nM.

`COCCNc1nc(Cn2nc(-c3ccc(Cl)cc3)n(C[C@H](O)C(F)(F)F)c2=O)nn1-c1ccccc1Cl` [Example 79, 5-(4-Chlorophenyl)-2-({1-(2-chlorophenyl)-5-[(2-methoxyethyl)amino]-1H-1,2,4-triazol-3-yl}methyl)-4-[(2S)-3,3,3-trifluoro-2-hydroxypropyl]-2,4-dihydro-3H-1,2,4-triazol-3-one]: the half-inhibitory concentration (IC50) stood at 0.32 nM in test [1] and 2.19 nM in test [2]. Further, the “ratio IC50 hV2/hV1a” value in test [1] is on record as 6.8.

`O=c1n(Cc2nc(NCCO)n(-c3ccccc3Cl)n2)nc(-c2ccc(Cl)cc2)n1C[C@H](O)C(F)(F)F` [Example 80, 5-(4-Chlorophenyl)-2-({1-(2-chlorophenyl)-5-[(2-hydroxyethyl)amino]-1H-1,2,4-triazol-3-yl}methyl)-4-[(2S)-3,3,3-trifluoro-2-hydroxypropyl]-2,4-dihydro-3H-1,2,4-triazol-3-one]: the values for the IC50 in test [1] and in test [2] were 0.36 nM and 2.79 nM, respectively. Also, the “ratio IC50 hV2/hV1a” value in test [1] is listed as 7.8.

As to `O=c1n(Cc2nc(N3CC(F)(F)C3)n(-c3ccccc3Cl)n2)nc(-c2ccc(Cl)cc2)n1C[C@H](O)C(F)(F)F` [Example 81, 5-(4-Chlorophenyl)-2-{[1-(2-chlorophenyl)-5-(3,3-difluoroazetidin-1-yl)-1H-1,2,4-triazol-3-yl]methyl}-4-[(2S)-3,3,3-trifluoro-2-hydroxypropyl]-2,4-dihydro-3H-1,2,4-triazol-3-one], in test [1], the IC50 was determined as 1.6 nM and the “ratio IC50 hV2/hV1a” value amounted to 11.0. Moreover, the IC50 in test [2] was 17.7 nM.

Take `CC(C)(O)CNc1nc(Cn2nc(-c3ccc(Cl)cc3)n(C[C@H](O)C(F)(F)F)c2=O)nn1-c1ccccc1Cl` [Example 82, 5-(4-Chlorophenyl)-2-({1-(2-chlorophenyl)-5-[(2-hydroxy-2-methylpropyl)amino]-1H-1,2,4-triazol-3-yl}methyl)-4-[(2S)-3,3,3-trifluoro-2-hydroxypropyl]-2,4-dihydro-3H-1,2,4-triazol-3-one]: in test [1], the concentration for half-maximal inhibition (IC50) is 0.86 nM and the “ratio IC50 hV2/hV1a” value is reported as 7.5. Also, the IC50 in test [2] was found to be 6.47 nM.

Regarding `O=c1n(Cc2nc(N3CCOCC3)n(-c3ccccc3Cl)n2)nc(-c2ccc(Cl)cc2)n1C[C@H](O)C(F)(F)F` [Example 83, 5-(4-Chlorophenyl)-2-{[1-(2-chlorophenyl)-5-(morpholin-4-yl)-1H-1,2,4-triazol-3-yl]methyl}-4-[(2S)-3,3,3-trifluoro-2-hydroxypropyl]-2,4-dihydro-3H-1,2,4-triazol-3-one], in test [1], the IC50 was 0.56 nM and the “ratio IC50 hV2/hV1a” value was found to be 25.7. Besides, the 50% inhibitory concentration (IC50) in test [2] stood at 14.3 nM.

For `CN(CCO)c1nc(Cn2nc(-c3ccc(Cl)cc3)n(C[C@H](O)C(F)(F)F)c2=O)nn1-c1ccccc1Cl` [Example 84, 5-(4-Chlorophenyl)-2-({1-(2-chlorophenyl)-5-[(2-hydroxyethyl)(methyl)amino]-1H-1,2,4-triazol-3-yl}methyl)-4-[(2S)-3,3,3-trifluoro-2-hydroxypropyl]-2,4-dihydro-3H-1,2,4-triazol-3-one], in test [1], the IC50 turned out to be 0.83 nM and the “ratio IC50 hV2/hV1a” value turned out to be 14.4. Besides, the IC50 in test [2] is 12 nM.

For the compound `COCCN(C)c1nc(Cn2nc(-c3ccc(Cl)cc3)n(C[C@H](O)C(F)(F)F)c2=O)nn1-c1ccccc1Cl` [Example 85, 5-(4-Chlorophenyl)-2-({1-(2-chlorophenyl)-5-[(2-methoxyethyl)(methyl)amino]-1H-1,2,4-triazol-3-yl}methyl)-4-[(2S)-3,3,3-trifluoro-2-hydroxypropyl]-2,4-dihydro-3H-1,2,4-triazol-3-one], in test [1], the IC50 stood at 0.58 nM and the “ratio IC50 hV2/hV1a” value is listed as 16.9. Further, in test [2], the IC50 turned out to be 9.76 nM.

On to `O=c1n(Cc2nc(N3CC4(COC4)C3)n(-c3ccccc3Cl)n2)nc(-c2ccc(Cl)cc2)n1C[C@H](O)C(F)(F)F` [Example 86, 5-(4-Chlorophenyl)-2-{[1-(2-chlorophenyl)-5-(2-oxa-6-azaspiro[3.3]hept-6-yl)-1H-1,2,4-triazol-3-yl]methyl}-4-[(2S)-3,3,3-trifluoro-2-hydroxypropyl]-2,4-dihydro-3H-1,2,4-triazol-3-one], for which, in test [1], the half-maximal inhibitory concentration (IC50) came to 0.98 nM and the “ratio IC50 hV2/hV1a” value is 6.8. In addition, the concentration for half-maximal inhibition (IC50) in test [2] is 6.66 nM.

In the case of `O=c1n(Cc2nc(N3CCCC3)n(-c3ccccc3Cl)n2)nc(-c2ccc(Cl)cc2)n1C[C@H](O)C(F)(F)F` [Example 87, 5-(4-Chlorophenyl)-2-{[1-(2-chlorophenyl)-5-(pyrrolidin-1-yl)-1H-1,2,4-triazol-3-yl]methyl}-4-[(2S)-3,3,3-trifluoro-2-hydroxypropyl]-2,4-dihydro-3H-1,2,4-triazol-3-one], in test [1], the 50% inhibitory concentration (IC50) amounted to 2.41 nM and the “ratio IC50 hV2/hV1a” value stood at 11.1. Also, the concentration for half-maximal inhibition (IC50) in test [2] was 26.8 nM.

Regarding `O=c1n(Cc2nc(N3CCCC3)n(-c3cccc(F)c3)n2)nc(-c2ccc(Cl)cc2)n1C[C@H](O)C(F)(F)F` [Example 88, 5-(4-Chlorophenyl)-2-{[1-(3-fluorophenyl)-5-(pyrrolidin-1-yl)-1H-1,2,4-triazol-3-yl]methyl}-4-[(2S)-3,3,3-trifluoro-2-hydroxypropyl]-2,4-dihydro-3H-1,2,4-triazol-3-one], in test [1], the half-inhibitory concentration (IC50) is 5.59 nM and the “ratio IC50 hV2/hV1a” value amounted to 2.1. Further, in test [2], the IC50 worked out at 11.9 nM.

Consider `O=C1CN(c2nc(Cn3nc(-c4ccc(Cl)cc4)n(C[C@H](O)C(F)(F)F)c3=O)nn2-c2ccccc2F)CCN1` [Example 89, 4-[3-({3-(4-Chlorophenyl)-5-oxo-4-[(2S)-3,3,3-trifluoro-2-hydroxypropyl]-4,5-dihydro-1H-1,2,4-triazol-1-yl}methyl)-1-(2-fluorophenyl)-1H-1,2,4-triazol-5-yl]piperazin-2-one], for which, in test [1], the IC50 is 5.45 nM and the “ratio IC50 hV2/hV1a” value turned out to be 14.8. In addition, the IC50 in test [2] is 80.5 nM.
